Source: ChEMBL document CHEMBL4825757, “Optimization of 4,6-Disubstituted Pyrido[3,2-d]pyrimidines as Dual MNK/PIM Inhibitors to Inhibit Leukemia Cell Growth” (J Med Chem, 2021)
pIC50: −log10 of the molar value.

Key:
MOLM-13 = experiment: Antiproliferative activity against human MOLM13 cells assessed as reduction of cell viability incubated for 72 hrs by trypan blue staining based cell counting analysis; assay type: functional
[1] = biological target: T1, MAP kinase-interacting serine/threonine-protein kinase 1 (Homo sapiens, UniProt Q9BUB5); experiment: Inhibition of MKN1 (unknown origin) at 1 uM in presence of ATP by HTRF assay
Target sequence in this assay (Q9BUB5 whole entry, looked up): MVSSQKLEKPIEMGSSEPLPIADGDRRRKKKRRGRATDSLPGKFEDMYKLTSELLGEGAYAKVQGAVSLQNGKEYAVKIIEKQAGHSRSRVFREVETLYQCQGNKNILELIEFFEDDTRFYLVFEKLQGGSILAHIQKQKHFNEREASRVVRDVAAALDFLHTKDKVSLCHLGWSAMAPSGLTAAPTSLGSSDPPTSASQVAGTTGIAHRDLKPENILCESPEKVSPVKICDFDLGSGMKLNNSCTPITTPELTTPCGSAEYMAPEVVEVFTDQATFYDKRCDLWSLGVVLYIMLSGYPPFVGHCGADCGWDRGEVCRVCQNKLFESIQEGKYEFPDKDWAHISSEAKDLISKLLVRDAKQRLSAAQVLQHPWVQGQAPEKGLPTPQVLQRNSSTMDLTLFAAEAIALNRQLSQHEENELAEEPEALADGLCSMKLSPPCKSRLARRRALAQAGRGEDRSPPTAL

[2] = biological target: MAP kinase-interacting serine/threonine-protein kinase 2 (Homo sapiens, UniProt Q9HBH9); experiment: Inhibition of MKN2 (unknown origin) in presence of ATP by HTRF assay
[3] = biological target: T1, MAP kinase-interacting serine/threonine-protein kinase 1; experiment: Inhibition of MKN1 (unknown origin) in presence of ATP by HTRF assay
Target sequence in this assay (Q9BUB5 whole entry): as the sequence (Q9BUB5 whole entry, looked up) above

Sequence of MAP kinase-interacting serine/threonine-protein kinase 2 (Q9HBH9 whole entry): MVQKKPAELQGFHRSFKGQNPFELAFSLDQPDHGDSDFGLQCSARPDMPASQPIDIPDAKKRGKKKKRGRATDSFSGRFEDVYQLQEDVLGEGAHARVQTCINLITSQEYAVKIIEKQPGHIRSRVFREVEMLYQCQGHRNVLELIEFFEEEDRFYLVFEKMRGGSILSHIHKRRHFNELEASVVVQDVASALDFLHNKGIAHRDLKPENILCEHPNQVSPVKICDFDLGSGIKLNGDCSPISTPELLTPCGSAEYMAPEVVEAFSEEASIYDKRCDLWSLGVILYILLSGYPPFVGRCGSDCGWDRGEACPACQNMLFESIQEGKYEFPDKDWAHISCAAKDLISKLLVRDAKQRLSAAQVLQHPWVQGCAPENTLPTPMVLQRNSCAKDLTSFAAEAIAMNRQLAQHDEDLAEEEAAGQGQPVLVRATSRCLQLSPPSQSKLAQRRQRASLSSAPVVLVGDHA

Compound O=C(c1ccc(-c2ccc3ncnc(Nc4ccccc4F)c3n2)cc1)N1CCNCC1 has a GI50 (MOLM-13) of 3080 nM, an inhibition [1] of 34% and a pIC50 [2] of 8.00.
With Cc1c(C(=O)N(C)C)oc2ccc(Nc3ncnc4ccc(Cl)nc34)cc12 the pIC50 [3] was under 5.00 and the pIC50 [2] was 5.66.
With O=C(c1cccc(-c2ccc3ncnc(Nc4ccc(F)cc4)c3n2)c1)N1CCNCC1 the GI50 (MOLM-13) was 6050 nM, the inhibition [1] was 70% and the pIC50 [2] was 7.28.
For COc1ccc(Nc2ncnc3ccc(-c4ccc(C(=O)N5CCNCC5)cc4)nc23)cc1, the GI50 (MOLM-13) was 10100 nM, the inhibition [1] was 7% and the pIC50 [2] was 6.95.
Work on CNC(=O)c1oc2ccc(Nc3ncnc4ccc(Cl)nc34)cc2c1C yielded a pIC50 [3] of under 5.00 and a pIC50 [2] of 5.60.
With CCCNC(=O)c1cccc(C#Cc2ccccc2Nc2ncnc3ccc(Cl)nc23)c1 the pIC50 [3] was under 5.00 and the pIC50 [2] was 5.41.
COc1cc(Nc2ncnc3ccc(-c4ccc(C(=O)N5CCNCC5)cc4)nc23)ccc1F was tested, and the GI50 (MOLM-13) was 2850 nM, the inhibition [1] was 90% and the pIC50 [3] was 9.00. For the same compound, the pIC50 [2] was 7.60.
For Cc1ccc(Nc2ncnc3ccc(-c4ccc(C(=O)N5CCNCC5)cc4)nc23)cc1, the GI50 (MOLM-13) was 3540 nM, the inhibition [1] was 12% and the pIC50 [2] was 7.21.
CN(C)C(=O)c1cccc(C#Cc2ccccc2Nc2ncnc3ccc(Cl)nc23)c1 gave a pIC50 [3] of under 5.00 and a pIC50 [2] of under 5.00.
Compound O=C(c1ccc(-c2ccc3ncnc(Nc4ccc(O)cc4)c3n2)cc1)N1CCNCC1 has a GI50 (MOLM-13) of 11200 nM, an inhibition [1] of 86% and a pIC50 [3] of 8.07. The pIC50 [2] was 7.39.
Compound Cc1c(C(=O)N2CCOCC2)oc2ccc(Nc3ncnc4ccc(Cl)nc34)cc12 has a pIC50 [3] of under 5.00 and a pIC50 [2] of 5.74.
Cc1c(C(=O)N2CCNCC2)oc2ccc(Nc3ncnc4ccc(Cl)nc34)cc12 showed a pIC50 [3] of under 5.00 and a pIC50 [2] of 5.72.
In the case of O=C(c1ccc(-c2ccc3ncnc(Nc4ccc(F)cc4)c3n2)cc1)N1CCNCC1, the GI50 (MOLM-13) was 7930 nM, the inhibition [1] was 83% and the pIC50 [3] was 8.96. For the same compound, the pIC50 [2] was 7.59.
With O=C(c1cccc(C#Cc2ccccc2Nc2ncnc3ccc(Cl)nc23)c1)N1CCNCC1 the pIC50 [3] was under 5.00 and the pIC50 [2] was 5.30.
